Measured values published in US20170010280A1, “GDF15 AS BIOMARKER FOR DIAGNOSING MITOCHONDRIAL DISEASES” (TOKYO METROPOLITAN GERIATRIC HOSPITAL AND INSTITUTE OF …, priority 2014, published 2017).
Read-outs that look alike come from different tables or passages of the source.

What was measured:
[1] = tested on: 2SD cells; conditions: 10 mM, 4 hours after treatment, non-patent document 1; cited from earlier work
[2] = tested on: 2SD cells; assay: quantitative RT-PCR of GDF15, INHBE and IL1A expression; assay type: cell-based, human; conditions: 10 mM, 4 and 8 hours after treatment
Method: Total RNA was isolated from cells with miRNeasy-minikit (Qiagen), and reverse transcribed to cDNA with a High Capacity cDNA Reverse Transcription Kit (Life Technologies, Carlsbad, Calif., USA) used according to the manufacturer's protocols. Real-time PCR was performed on the StepOnePlus Real-Time PCR System (Life Technologies) using Power SYBR Green PCR Master Mix. 18S rRNA gene was used as an internal control for normalization. The sequences of primers are listed in Table 1(The numbers in the sequence listing, SEQ ID NO: 1 to 1 stage left, SEQ ID NO: 2 to the right sequentially subjected to SEQ ID NO: 8.).
(iv) In order to determine the expression level of GDF15, INHBE and IL1A in cells, quantitative RT-PCRs were performed. The expression level of GDF15, INHBE, and IL1A were increased at 4 and 8 hours after treatment with 10 mM lactate in 2SD cells, otherwise they were not changed after treatment with 10mM pyruvate. The expression level of GDF15 was higher in 2SD cells than in 2SA cells at 0 hour. On the results, the reproducibility of the microarray data were confirmed. GDF15, INHBE, and IL1A were identified as biomarkers for mitochondrial diseases (FIG. 2 to FIG. 4).

[3] = tested on: 2SA cells (control cell); conditions: high concentration, non-patent document 1; cited from earlier work
[4] = tested on: 2SD cells (mitochondrial disease model cell); assay: exhaustive gene expression analysis (microarray) after lactate or pyruvate treatment; assay type: cell-based, human
Description: (i) Cybrid cells established from myoblasts in MELAS (mitochondrial myopathy, encephalopathy, lactic acidosis, and stroke-like episodes), which is relatively high incident among mitochondrial diseases patient and human osteosarcoma 143B cells were used in the experiment. Specifically, myoblast cells from MELAS patients lacking the cell nuclei were fused with human osteosarcoma-derived 143B cells lacking mitochondrial DNA (mtDNA). From some fused cell lines, a cell line without m.3243A>G mutation in mtDNA was used as control cell (2SA) and a cell line with m.3243A>G mutation with 94% was used as mitochondrial disease model cell (2SD) (the mutation ratio is not 100%, because mitochondria is heteroplasmy). Cells were cultured in high-glucose Dulbecco's modified Eagle's medium (DMEM) supplemented with 10% FBS, 1 mM sodium pyruvate, and 0.4 mM uridine at 37° C. under a humidified atmosphere of 5% CO2. Total RNA was isolated from cells by using a miRNeasy mini kit (Qiagen, Venlo, Netherlands). One hundred nanograms of total RNA was labeled and amplified with a low input quick amp labeling kit (Agilent Technologies, Santa Clara, Calif., USA) used according to the manufacturer's instructions. The labeled cRNA was hybridized to the Agilent SurePrint G3 Human GE 8×60K Microarray in a rotating hybridization oven at 10 rpm for 20 h at 65° C. After hybridization, the microarrays were washed according to the manufacturer's instructions and scanned on an Agilent DNA Microarray Scanner with Scan Control software. The resulting images were processed, and raw data were collected by using Agilent Feature Extraction software. Expression data were analyzed by using GeneSpring GX 11 (Agilent Technologies). The signal intensity of each probe was normalized by a percentile shift, in which each value was divided by the 75th percentile of all values in its array. For pairwise comparison analysis, only the probes that had expression flags present under at least one condition were considered. The list was analyzed with Ingenuity Pathways Analysis software (Ingenuity Systems, Redwood, Calif., USA). (i) 2SA cells and 2SD cells were collected at 0, 4, and 8 hours after treatment of 10 mM lactate or 10 mM of pyruvate. After RNA were extracted from these cells, exhaustive gene expression analysis were performed using microarray analysis.

[5] = tested on: 2SD cells; assay: ELISA of GDF15 concentration in culture medium; assay type: cell-based, human; conditions: 10 mM lactate, medium cultured 24 h
Method: Cells were placed on 60-mm dishes 1 day before replacing the medium with fresh medium. Conditioned medium cultured for 24 h was collected, and the particulates were removed by centrifugation (at 500×g for 10 min, at 10,000×g for 30 min). The GDF15 and INHBE concentrations in the supernatants and in the sera of patients were determined in duplicate by using a Human GDF-15 Immunoassay (DGD150, R&D Systems, Minneapolis, Minn., USA) and enzyme-linked immunosorbent assay kit for Inhibin Beta E (E90048Hu, Uscn Life Science, Wuhan, Hubei, PRC) according to the manufacturer's instructions. For measuring IL1A and other cytokine concentrations, the sera were subjected to a multiplex suspension array, Bio Plex Pro Human Cytokine Grp II Panel 21-Plex (MF0-005KMII, Bio-Rad, Hercules, Calif., USA). The cytokines measured by use of this array were the following: IL-2Rα, IL-3, IL-12 (p40), IL-16, IL-18, CTACK, GRO-α, HGF, IFN-α2, LIF, MCP-3, M-CSF, MIF, MIG, β-NGF, SCF, SCGF-β, SDF-1α, TNF-β, and TRAIL.
(v) The concentrations of three secreted proteins as candidate biomarkers in cell culture were measured by ELISA and multiplex suspension arrays. […] Other secreted proteins could not be measured under the detection limit.

[6] = tested on: 2SA cells (control cell); assay: metabolome analysis of energy metabolism; assay type: cell-based, human; conditions: high concentration
Method: (§1) (ii) Metabolome analysis were performed using 2SA cells and 2SD cells. […] The energy metabolism disorder has become remarkable 4 hours after treatment of high concentration of lactic acid (10 mM) in 2SD cells, and the phenomenon was not observed after treatment of high concentration of pyruvic acid (10 mM). The energy metabolism disorder was not observed after treatment of high concentration of lactic acid in 2SA cells. Based on the results, we came up with the forecast that the genes expressed in 2SD cells with energy metabolism disorders in a high concentration of lactic acid may be new biomarkers that reflects the energy metabolic disorder of mitochondrial disease patients.

[7] = tested on: 2SD cells; assay: metabolome analysis of energy metabolism; assay type: cell-based, human; conditions: 10 mM, 4 hours after treatment
Method: as §1

[8] = tested on: mitochondrial disease patients; assay: sodium pyruvate therapy for mitochondrial disease patients; assay type: in vivo, human; conditions: patients n=10, 0.3 g/kg to 2 g/kg, over seven years
Description: 4. Study of sodium pyruvate therapy for mitochondrial disease patients For mitochondrial disease patients (n=10), sodium pyruvate (0.3 g/kg to 2 g/kg) had been administered for over seven years. During the period, the transition of
FGF-21 and GDF-15 had been determined and parameters of other therapeutic effects had been investigated. The mitochondrial disease patients contained PDH E1A deficiency, MELAS/cardiomyopathy with A3243G mutation, and MELAS/Leigh syndrome with G13513A mutation in the ND5 gene.

[9] = 10 mM lactate, 8 h vs 0 h after lactate treatment
[10] = lactate vs pyruvate treatment at 8 h

**Q.** For `CC(O)C(=O)O` (stereo not shown) [lactate, lactic acid], which energy metabolism disorder [1] is on record?
**A.** remarkable

**Q.** And the “expression level of GDF15” value [2]?
**A.** increased

**Q.** And the “expression level of IL1A” value [2]?
**A.** increased

**Q.** What about the “expression level of INHBE” value [2] of the same compound?
**A.** increased

**Q.** What about the energy metabolism disorder [3] of the same compound?
**A.** not observed

**Q.** And the “Fold Change L-8/L-0, ADAMTS17” value [4, 9]?
**A.** 3.5

**Q.** What about the “Fold Change L-8/L-0, ADM2” value [4, 9] of the same compound?
**A.** 10.3

**Q.** And the “Fold Change L-8/L-0, AMTN” value [4, 9]?
**A.** 5.0

**Q.** And the “Fold Change L-8/L-0, APOL6” value [4, 9]?
**A.** 6.2

**Q.** And the “Fold Change L-8/L-0, AREG” value [4, 9]?
**A.** 14.0

**Q.** And the “Fold Change L-8/L-0, C1QTNF1” value [4, 9]?
**A.** 2.6

**Q.** And the “Fold Change L-8/L-0, C12orf39” value [4, 9]?
**A.** 6.3

**Q.** And the “Fold Change L-8/L-0, CLEC3B” value [4, 9]?
**A.** 2.1

**Q.** And the “Fold Change L-8/L-0, CXCL1” value [4, 9]?
**A.** −3.4

**Q.** And the “Fold Change L-8/L-0, DKK1” value [4, 9]?
**A.** −2.1

**Q.** What about the “Fold Change L-8/L-0, ECM2” value [4, 9] of the same compound?
**A.** 11.8

**Q.** What about the “Fold Change L-8/L-0, GDF15” value [4, 9] of the same compound?
**A.** 27.4

**Q.** What about the “Fold Change L-8/L-0, HECW2” value [4, 9] of the same compound?
**A.** 2.4

**Q.** What about the “Fold Change L-8/L-0, IGFALS” value [4, 9] of the same compound?
**A.** 2.3

**Q.** What about the “Fold Change L-8/L-0, IGFBPI” value [4, 9] of the same compound?
**A.** 2.3

**Q.** What about the “Fold Change L-8/L-0, IL1A” value [4, 9] of the same compound?
**A.** 7.6

**Q.** And the “Fold Change L-8/L-0, IL23A” value [4, 9]?
**A.** 4.4

**Q.** And the “Fold Change L-8/L-0, INHBE” value [4, 9]?
**A.** 15.0

**Q.** And the “Fold Change L-8/L-0, MMP3” value [4, 9]?
**A.** 9.8

**Q.** And the “Fold Change L-8/L-0, PDGFA” value [4, 9]?
**A.** 2.2

**Q.** What about the “Fold Change L-8/L-0, PDGFB” value [4, 9] of the same compound?
**A.** 2.8

**Q.** And the “Fold Change L-8/L-0, PDZRN3” value [4, 9]?
**A.** −2.4

**Q.** What about the “Fold Change L-8/L-0, SCG5” value [4, 9] of the same compound?
**A.** 5.2

**Q.** What about the “Fold Change L-8/L-0, SLC39A10” value [4, 9] of the same compound?
**A.** −2.3

**Q.** What about the “Fold Change L-8/L-0, SPOCK2” value [4, 9] of the same compound?
**A.** 5.1

**Q.** And the “Fold Change L-8/L-0, STC2” value [4, 9]?
**A.** 3.4

**Q.** And the “Fold Change L-8/L-0, VEGFA” value [4, 9]?
**A.** 3.4

**Q.** And the “Fold Change L-8/P-8, ADAMTS17” value [4, 10]?
**A.** 2.2

**Q.** What about the “Fold Change L-8/P-8, ADM2” value [4, 10] of the same compound?
**A.** 3.0

**Q.** What about the “Fold Change L-8/P-8, AMTN” value [4, 10] of the same compound?
**A.** 3.9

**Q.** And the “Fold Change L-8/P-8, APOL6” value [4, 10]?
**A.** 3.8

**Q.** What about the “Fold Change L-8/P-8, AREG” value [4, 10] of the same compound?
**A.** 2.2

**Q.** And the “Fold Change L-8/P-8, C1QTNF1” value [4, 10]?
**A.** 2.9

**Q.** What about the “Fold Change L-8/P-8, C12orf39” value [4, 10] of the same compound?
**A.** 6.7

**Q.** And the “Fold Change L-8/P-8, CLEC3B” value [4, 10]?
**A.** 2.2

**Q.** What about the “Fold Change L-8/P-8, CXCL1” value [4, 10] of the same compound?
**A.** −2.6

**Q.** And the “Fold Change L-8/P-8, DKK1” value [4, 10]?
**A.** −2.3

**Q.** And the “Fold Change L-8/P-8, ECM2” value [4, 10]?
**A.** 9.0

**Q.** What about the “Fold Change L-8/P-8, GDF15” value [4, 10] of the same compound?
**A.** 14.8

**Q.** And the “Fold Change L-8/P-8, HECW2” value [4, 10]?
**A.** 2.1

**Q.** What about the “Fold Change L-8/P-8, IGFALS” value [4, 10] of the same compound?
**A.** 2.5

**Q.** And the “Fold Change L-8/P-8, IGFBPI” value [4, 10]?
**A.** 2.1

**Q.** What about the “Fold Change L-8/P-8, IL1A” value [4, 10] of the same compound?
**A.** 6.0

**Q.** And the “Fold Change L-8/P-8, IL23A” value [4, 10]?
**A.** 2.8

**Q.** What about the “Fold Change L-8/P-8, INHBE” value [4, 10] of the same compound?
**A.** 9.4

**Q.** And the “Fold Change L-8/P-8, MMP3” value [4, 10]?
**A.** 4.2

**Q.** What about the “Fold Change L-8/P-8, PDGFA” value [4, 10] of the same compound?
**A.** 2.2

**Q.** What about the “Fold Change L-8/P-8, PDGFB” value [4, 10] of the same compound?
**A.** 3.8

**Q.** And the “Fold Change L-8/P-8, PDZRN3” value [4, 10]?
**A.** −2.0

**Q.** What about the “Fold Change L-8/P-8, SCG5” value [4, 10] of the same compound?
**A.** 3.0

**Q.** And the “Fold Change L-8/P-8, SLC39A10” value [4, 10]?
**A.** −2.9

**Q.** What about the “Fold Change L-8/P-8, SPOCK2” value [4, 10] of the same compound?
**A.** 6.6

**Q.** And the “Fold Change L-8/P-8, STC2” value [4, 10]?
**A.** 2.6

**Q.** And the “Fold Change L-8/P-8, VEGFA” value [4, 10]?
**A.** 2.5

**Q.** And the “concentration of GDF15 in culture medium” value [5]?
**A.** increased

**Q.** What about the energy metabolism disorder [6] of the same compound?
**A.** not observed

**Q.** What about the energy metabolism disorder [7] of the same compound?
**A.** remarkable

**Q.** With `CC(=O)C(=O)O` [pyruvate, pyruvic acid] as the compound, how does the energy metabolism disorder [1] read?
**A.** not observed

**Q.** And the “expression level of GDF15” value [2]?
**A.** not changed

**Q.** What about the “expression level of IL1A” value [2] of the same compound?
**A.** not changed

**Q.** What about the “expression level of INHBE” value [2] of the same compound?
**A.** not changed

**Q.** What about the energy metabolism disorder [7] of the same compound?
**A.** not observed

**Q.** Which results are given for `CC(=O)C(=O)[O-].[Na+]` [sodium pyruvate]?
**A.** concentration of GDF-15 [8]: significantly reduced; concentration of alanine [8]: significantly reduced; concentration of lactate [8]: significantly reduced; concentration of pyruvate [8]: significantly reduced; side effects [8]: no side effects were observed; therapeutic effect [8]: highly effective therapy
